Molecular target: T1, LRRK2 wild type (recombinant human, catalytic domain amino acids 970-2527, GST-tagged) (Homo sapiens, UniProt Q5S007)
T1 construct: The wild type used was recombinant human, catalytic domain (amino acids 970-2527) GST-tagged, expressed in insect cells; GST; purchased Invitrogen Corporation PV4873; host or cells: insect cells
Experiment: LRRK2 wild type protein kinase assay ([γ-33P] ATP, peptide substrate […]), IC50
Format: biochemical
Settings: LRRK2 (variant not given); read-out: Potency score, LRRK2 IC50
Outline: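 IC50 derived from duplicate 10-point titrations, with 33P incorporation into a 100 μM peptide counted after P81 filter capture. Roughly 5 nM unactivated kinase reacted with Mg/[γ-33P]ATP for 180 min at room temperature (~21 °C), pH 7.5 Tris buffer containing 10 mM MgCl2, EGTA and DTT; acid-quenched.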

T1 sequence (Q5S007 970-2527): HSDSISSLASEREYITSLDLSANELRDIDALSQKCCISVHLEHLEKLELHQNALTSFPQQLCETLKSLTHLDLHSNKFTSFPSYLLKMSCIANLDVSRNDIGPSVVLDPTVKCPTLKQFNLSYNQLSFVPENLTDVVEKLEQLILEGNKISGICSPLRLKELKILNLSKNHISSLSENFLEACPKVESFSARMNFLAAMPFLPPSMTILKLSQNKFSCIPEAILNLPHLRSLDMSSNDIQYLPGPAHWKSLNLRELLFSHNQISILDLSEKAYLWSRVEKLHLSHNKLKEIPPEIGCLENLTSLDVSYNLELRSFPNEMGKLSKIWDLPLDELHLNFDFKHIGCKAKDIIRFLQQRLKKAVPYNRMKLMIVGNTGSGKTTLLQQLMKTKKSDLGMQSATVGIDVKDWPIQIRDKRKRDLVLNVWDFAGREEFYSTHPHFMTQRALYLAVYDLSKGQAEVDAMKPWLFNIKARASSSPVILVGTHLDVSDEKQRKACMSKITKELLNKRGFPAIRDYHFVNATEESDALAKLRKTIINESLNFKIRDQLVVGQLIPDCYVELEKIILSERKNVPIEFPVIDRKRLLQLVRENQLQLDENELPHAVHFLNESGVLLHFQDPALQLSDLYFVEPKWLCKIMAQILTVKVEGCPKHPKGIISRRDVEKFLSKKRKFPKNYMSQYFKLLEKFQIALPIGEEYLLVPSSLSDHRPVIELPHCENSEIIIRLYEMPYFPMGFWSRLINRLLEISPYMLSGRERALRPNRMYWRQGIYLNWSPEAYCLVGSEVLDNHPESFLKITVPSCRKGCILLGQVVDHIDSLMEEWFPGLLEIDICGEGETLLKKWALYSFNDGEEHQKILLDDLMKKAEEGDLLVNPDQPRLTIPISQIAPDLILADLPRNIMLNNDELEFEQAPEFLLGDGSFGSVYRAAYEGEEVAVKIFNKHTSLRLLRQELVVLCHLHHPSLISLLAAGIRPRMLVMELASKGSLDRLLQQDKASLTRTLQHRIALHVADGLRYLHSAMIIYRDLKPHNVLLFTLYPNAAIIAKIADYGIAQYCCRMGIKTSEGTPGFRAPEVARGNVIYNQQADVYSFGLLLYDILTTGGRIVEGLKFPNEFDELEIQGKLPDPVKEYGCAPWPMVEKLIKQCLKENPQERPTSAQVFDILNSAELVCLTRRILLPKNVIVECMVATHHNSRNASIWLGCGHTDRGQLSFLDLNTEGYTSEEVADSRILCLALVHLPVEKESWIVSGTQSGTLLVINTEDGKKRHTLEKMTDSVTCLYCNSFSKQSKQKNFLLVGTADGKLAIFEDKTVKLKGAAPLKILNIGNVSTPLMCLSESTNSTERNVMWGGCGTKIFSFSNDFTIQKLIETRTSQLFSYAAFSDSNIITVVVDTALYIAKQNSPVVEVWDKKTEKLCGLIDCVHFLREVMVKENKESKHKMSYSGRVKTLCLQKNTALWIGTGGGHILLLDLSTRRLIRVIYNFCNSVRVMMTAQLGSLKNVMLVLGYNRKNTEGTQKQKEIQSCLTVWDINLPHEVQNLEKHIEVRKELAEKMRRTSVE

Compound | IC50
CC(=O)Nc1cccc(-c2n[nH]c3ccnc(NC4CCCCC4)c23)c1 [Example 137, N-[3-(4-Cyclohexylamino-1H-pyrazolo[4,3-c]pyridin-3-yl)-phenyl]-acetamide] | 1000 to 10000 nM
Cc1n[nH]c2ccnc(-c3ccc(CNS(C)(=O)=O)cc3)c12 [Example 55, N-[4-(3-Methyl-1H-pyrazolo[4,3-c]pyridin-4-yl)-benzyl]-methane-sulfonamide] | 100 to 1000 nM
Cc1n[nH]c2ccnc(NCc3ccc(Cl)cc3)c12 [Example 1, (4-Chloro-benzyl)-(3-methyl-1H-pyrazolo[4,3-c]pyridin-4-yl)-amine] | 1000 to 10000 nM
COc1ccc(-c2n[nH]c3ccnc(NC4CCCCC4)c23)cn1 [Example 142, Cyclohexyl-[3-(6-methoxy-pyridin-3-yl)-1H-pyrazolo[4,3-c]pyridin-4-yl]-amine] | 1000 to 10000 nM
Cc1n[nH]c2ccnc(NC3CCCC3)c12 [Example 21, Cyclopentyl-(3-methyl-1H-pyrazolo[4,3-c]pyridin-4-yl)-amine] | 100 to 1000 nM
O=C(CCc1n[nH]c2ccnc(NC3CCCCC3)c12)N1CCN(Cc2ccc(F)cc2F)CC1 [Example 179, 3-(4-Cyclohexylamino-1H-pyrazolo[4,3-c]pyridin-3-yl)-1-[4-(2,4-difluoro-benzyl)-piperazin-1-yl]-propan-1-one] | 100 to 1000 nM
Cc1n[nH]c2ccnc(-c3ccc(F)cc3)c12 [Example 50, 4-(4-Fluoro-phenyl)-3-methyl-1H-pyrazolo[4,3-c]pyridine] | 1000 to 10000 nM
CCC[C@@H](C)Oc1nccc2[nH]nc(C)c12 [Example 286, 3-Methyl-4-((R)-1-methyl-butoxy)-1H-pyrazolo[4,3-c]pyridine] | 100 to 1000 nM
FC(F)(F)Oc1ccccc1-c1n[nH]c2ccnc(NC3CCCCC3)c12 [Example 151, Cyclohexyl-[3-(2-trifluoromethoxy-phenyl)-1H-pyrazolo[4,3-c]pyridin-4-yl]-amine] | 1000 to 10000 nM
CCC(CC)Nc1nccc2[nH]nc(C)c12 [Example 41, (1-Ethyl-propyl)-(3-methyl-1H-pyrazolo[4,3-c]pyridin-4-yl)-amine] | 100 to 1000 nM
Cc1n[nH]c2ccnc(-c3ncco3)c12 [Example 129, 3-Methyl-4-oxazol-2-yl-1H-pyrazolo[4,3-c]pyridine] | 1000 to 10000 nM
Cc1n[nH]c2ccnc(-c3cnccn3)c12 [Example 131, 3-Methyl-4-pyrazin-2-yl-1H-pyrazolo[4,3-cc]pyridine] | 1000 to 10000 nM
Cc1n[nH]c2ccnc(Nc3cccc(O)c3)c12 [Example 77, 3-(3-Methyl-1H-pyrazolo[4,3-c]pyridin-4-ylamino)-phenol] | 100 to 1000 nM
Cc1n[nH]c2ccnc(N(C)Cc3ccccc3)c12 [Example 95, Benzyl-methyl-(3-methyl-1H-pyrazolo[4,3-c]pyridin-4-yl)-amine] | 1000 to 10000 nM
Cc1n[nH]c2ccnc(OC3CCN(C)CC3)c12 [Example 116, 3-Methyl-4-(1-methyl-piperidin-4-yloxy)-1H-pyrazolo[4,3-c] pyridine] | 1000 to 10000 nM
COCCN1CCN(C(=O)CCc2n[nH]c3ccnc(NC4CCCCC4)c23)CC1 [Example 178, 3-(4-Cyclohexylamino-1H-pyrazolo[4,3-c]pyridin-3-yl)-1-[4-(2-methoxy-ethyl)-piperazin-1-yl]-propan-1-one] | 100 to 1000 nM
CN(Cc1ccccc1)C(=O)CCc1n[nH]c2ccnc(NC3CCCCC3)c12 [Example 183, N-Benzyl-3-(4-cyclohexylamino-1H-pyrazolo[4,3-c]pyridin-3-yl)-N-methyl-propionamide] | 100 to 1000 nM
Cc1n[nH]c2ccnc(Nc3ccc(C(=O)NC4CCCC4)cc3)c12 [Example 106, N-Cyclopentyl-4-(3-methyl-1H-pyrazolo[4,3-c]pyridin-4-ylamino)-benzamide] | 1000 to 10000 nM
N#Cc1cccc(-c2n[nH]c3ccnc(NC4CCCCC4)c23)c1 [Example 150, 3-(4-Cyclohexylamino-1H-pyrazolo[4,3-c]pyridin-3-yl)-benzonitrile] | 100 to 1000 nM
COc1cccc(-c2n[nH]c3ccnc(NC4CCCCC4)c23)c1 [Example 146, Cyclohexyl-[3-(3-methoxy-phenyl)-1H-pyrazolo[4,3-c]pyridin-4-yl]-amine] | 100 to 1000 nM
Cc1ccc(-c2n[nH]c3ccnc(NC4CCCCC4)c23)cc1 [Example 148, Cyclohexyl-(3-p-tolyl-1H-pyrazolo[4,3-c]pyridin-4-yl)-amine] | 100 to 1000 nM
Cc1n[nH]c2ccnc(NCC(C)C)c12 [Example 24, Isobutyl-(3-methyl-1H-pyrazolo[4,3-c]pyridin-4-yl)-amine] | 100 to 1000 nM
Cc1n[nH]c2ccnc(NCC3CC3)c12 [Example 18, Cyclopropylmethyl-(3-methyl-1H-pyrazolo[4,3-c]pyridin-4-yl)-amine] | 1000 to 10000 nM

Results, then the molecule that gave them:

IC50 | Compound
100 to 1000 nM | c1ccc(-c2nnc(CCc3n[nH]c4ccnc(NC5CCCCC5)c34)o2)cc1 [Example 216, Cyclohexyl-{3-[2-(5-phenyl-1,3,4-oxadiazol-2-yl)-ethyl]-1H-pyrazolo[4,3-c]pyridin-4-yl}-amine]
100 to 1000 nM | Cc1n[nH]c2ccnc(Nc3ccc(C(F)(F)F)cc3)c12 [Example 346, (3-Methyl-1H-pyrazolo[4,3-c]pyridin-4-yl)-(4-trifluoromethyl-phenyl)-amine]
100 to 1000 nM | Cc1n[nH]c2ccnc(OCCC(F)(F)F)c12 [Example 295, 3-Methyl-4-(3,3,3-trifluoro-propoxy)-1H-pyrazolo[4,3-c]pyridine]
< 100 nM | O=C(Nc1ccc(CCc2n[nH]c3ccnc(NC4CCCCC4)c23)cc1)c1ccc2nccnc2c1 [Example 270, Quinoxaline-6-carboxylic acid {4-[2-(4-cyclohexylamino-1H-pyrazolo[4,3-c]pyridin-3-yl)-ethyl]-phenyl}-amide]
< 100 nM | CC(=O)Nc1ccc(CCc2n[nH]c3ccnc(NC4CCCCC4)c23)cc1 [Example 262, N-{4-[2-(4-Cyclohexylamino-1H-pyrazolo[4,3-c]pyridin-3-yl)-ethyl]-phenyl}-acetamide]
100 to 1000 nM | Cc1n[nH]c2ccnc(Nc3ccccc3Cl)c12 [Example 309, (2-Chloro-phenyl)-(3-methyl-1H-pyrazolo[4,3-c]pyridin-4-yl)-amine]
1000 to 10000 nM | Cc1ccc(Nc2nccc3[nH]nc(C)c23)cn1 [Example 344, (3-Methyl-1H-pyrazolo[4,3-c]pyridin-4-yl)-(6-methyl-pyridin-3-yl)-amine]
< 100 nM | O=C(c1ccc(CCc2n[nH]c3ccnc(NC4CCCCC4)c23)cc1)N1CC[C@H](c2cccnc2)C1 [Example 248, {4-[2-(4-Cyclohexylamino-1H-pyrazolo[4,3-c]pyridin-3-yl)-ethyl]-phenyl}-((R)-3-pyridin-3-yl-pyrrolidin-1-yl)-methanone]
1000 to 10000 nM | Cc1n[nH]c2ccnc(NCC3CCCO3)c12 (stereo not drawn) [Example 304, (3-Methyl-1H-pyrazolo[4,3-c]pyridin-4-yl)-(tetrahydro-furan-2-ylmethyl)-amine]
100 to 1000 nM | O=C(CCc1n[nH]c2ccnc(NC3CCCCC3)c12)N1CCC(C(F)(F)F)CC1 [Example 203, 3-(4-Cyclohexylamino-1H-pyrazolo[4,3-c]pyridin-3-yl)-1-(4-trifluoromethyl-piperidin-1-yl)-propan-1-one]
< 100 nM | O=C(CCc1n[nH]c2ccnc(NC3CCCCC3)c12)N1CCC(c2cccnc2)C1 (stereo not drawn) [Example 207, 3-(4-Cyclohexylamino-1H-pyrazolo[4,3-c]pyridin-3-yl)-1-(3-pyridin-3-yl-pyrrolidin-1-yl)-propan-1-one]
1000 to 10000 nM | Cc1n[nH]c2ccnc(Nc3ccc(C#N)cc3)c12 [Example 348, 4-(3-Methyl-1H-pyrazolo[4,3-c]pyridin-4-ylamino)-benzonitrile]
< 100 nM | Cc1n[nH]c2ccnc(OC(C)C)c12 [Example 277, 4-isopropoxy-3-methyl-1H-pyrazolo[4,3-c]pyridine]
100 to 1000 nM | c1cc2[nH]nc(-c3cnn(CCN4CCOCC4)c3)c2c(NC2CCCCC2)n1 [Example 233, Cyclohexyl-{3-[1-(2-morpholin-4-yl-ethyl)-1H-pyrazol-4-yl]-1H-pyrazolo[4,3-c]pyridin-4-yl}-amine]
100 to 1000 nM | Cc1n[nH]c2ccnc(OCC(F)(F)F)c12 [Example 279, 3-Methyl-4-(2,2,2-trifluoro-ethoxy)-1H-pyrazolo [4,3-c]pyridine]
1000 to 10000 nM | Cc1n[nH]c2ccnc(NCc3ccccn3)c12 [Example 312, (3-Methyl-1H-pyrazolo[4,3-c]pyridin-4-yl)-pyridin-2-ylmethyl-amine]
100 to 1000 nM | Cc1n[nH]c2ccnc(Nc3ccc(F)c(Cl)c3)c12 [Example 307, (3-Chloro-4-fluoro-phenyl)-(3-methyl-1H-pyrazolo[4,3-c]pyridin-4-yl)-amine]
100 to 1000 nM | Cc1n[nH]c2ccnc(Nc3cccc(C#N)c3)c12 [Example 347, 3-(3-Methyl-1H-pyrazolo[4,3-c]pyridin-4-ylamino)-benzonitrile]
< 100 nM | O=C(Nc1ccc(CCc2n[nH]c3ccnc(NC4CCCCC4)c23)cc1)C1CC1 [Example 274, Cyclopropanecarboxylic acid {4-[2-(4-cyclohexylamino-1H-pyrazolo[4,3-c]pyridin-3-yl)-ethyl]-phenyl}-amide]
100 to 1000 nM | Cc1n[nH]c2ccnc(O[C@H]3C[C@@H]4CC[C@H]3C4)c12 (racemic) [Example 291]
< 100 nM | CC(=O)Nc1ccc(C(=O)Nc2ccc(CCc3n[nH]c4ccnc(NC5CCCCC5)c34)cc2)cc1 [Example 264, 4-Acetylamino-N-{4-[2-(4-cyclohexylamino-1H-pyrazolo[4,3-c]pyridin-3-yl)-ethyl]-phenyl}-benzamide]
< 100 nM | O=C(Nc1cccc(CCc2n[nH]c3ccnc(NC4CCCCC4)c23)c1)c1cccc(Cl)c1 [Example 226, 3-Chloro-N-{3-[2-(4-cyclohexylamino-1H-pyrazolo[4,3-c]pyridin-3-yl)-ethyl]-phenyl}-benzamide]
